# Experimental data published in patent US8957084B2, “7,8-cyclicmorphinan analogs” (Purdue Pharma L.P., priority 2012, dated 2015).
# Columns and labels:
# [1] = target: T1, μ-opioid receptor (Homo sapiens (Human), UniProt P35372); assay: μ-opioid receptor radioligand dose-displacement binding assay ([3H]-diprenorphine); conditions: [3H]-diprenorphine displacement
# Procedure: Radioligand dose-displacement binding assays for μ-opioid receptors used 0.3 nM [^3H]-diprenorphine (Perkin Elmer, Shelton, Conn.), with […] membrane protein/well in a final volume of 500 μl binding buffer (10 mM MgCl2, 1 mM EDTA, 5% DMSO, 50 mM HEPES, pH 7.4). Reactions were carried out in the absence or presence of increasing concentrations of unlabeled naloxone. All reactions were conducted in 96-deep well polypropylene plates for 2 hours at room temperature. Binding reactions were terminated by rapid filtration onto 96-well Unifilter GF/C filter plates (Perkin Elmer, Shelton, Conn.), presoaked in 0.5% polyethylenimine using a 96-well tissue harvester (Perkin Elmer, Shelton, Conn.) followed by performing three filtration washes with 500 μl of ice-cold binding buffer. Filter plates were subsequently dried at 50° C. for 2-3 hours. BetaScint scintillation cocktail (Perkin Elmer, Shelton, Conn.) was added (50 μl/well), and plates were counted using a Packard Top-Count for 1 min/well. The data were analyzed using the one-site competition curve fitting functions in GraphPad PRISM™ v. 3.0 or higher (San Diego, Calif.), or an in-house function for one-site competition curve-fitting.
# (§1) In TABLE 1, binding affinity of certain Compounds of the Invention to the μ- and κ-opioid receptors was determined as described above.
# [2] = target: recombinant human kappa opioid receptor (κ) (Homo sapiens (Human), UniProt P41145); assay: κ-opioid receptor radioligand dose-displacement binding assay ([3H]-U69,593); conditions: [3H]-U69,593 displacement
# Procedure: (§2) Membranes from HEK-293 cells, CHO or U-2 OS cells expressing the recombinant human kappa opioid receptor (κ) were prepared by lysing cells in ice cold hypotonic buffer (2.5 mM MgCl2, 50 mM HEPES, pH 7.4) (10 mL/10 cm dish) followed by homogenization with a tissue grinder/Teflon pestle. Membranes were collected by centrifugation at 30,000×g for 15 min at 4° C. and pellets were resuspended in hypotonic buffer to a final concentration of 1-3 mg/mL. Protein concentrations were determined using the BioRad protein assay reagent with bovine serum albumen as standard. Aliquots of κ receptor membranes were stored at −80° C.
# Radioligand dose displacement assays used 0.4 nM [^3H]-U69,593 (GE Healthcare, Piscataway, N.J.; 40 Ci/mmole) with 15 μg membrane protein (recombinant κ opioid receptor expressed in HEK 293 cells; in-house prep) in a final volume of 200 μl binding buffer (5% DMSO, 50 mM Trizma base, pH 7.4). Non-specific binding was determined in the presence of 10 μM unlabeled naloxone or U69,593. All reactions were performed in 96-well polypropylene plates for 1 hour at a temperature of about 25° C. Binding reactions were terminated by rapid filtration onto 96-well Unifilter GF/C filter plates (Perkin Elmer, Shelton, Conn.) presoaked in 0.5% polyethylenimine (Sigma). Harvesting was performed using a 96-well tissue harvester (Perkin Elmer, Shelton, Conn.) followed by five filtration washes with 200 μl ice-cold binding buffer. Filter plates were subsequently dried at 50° C. for 1-2 hours. Fifty μl/well scintillation cocktail (Perkin Elmer, Shelton, Conn.) was added and plates were counted in a Packard Top-Count for 1 min/well.
# as §1
# [3] = target: T1, μ-opioid receptor; assay: μ-opioid receptor [35S]GTPγS functional assay, HEK-293 cells; assay type: biochemical; conditions: for Emax: relative to DAMGO
# Procedure: (§3) [^35S]GTPγS functional assays were conducted using freshly thawed μ-receptor membranes prepared in-house from a cell line expressing recombinant μ opioid receptor in a HEK-293, CHO or U-2 OS cell background, or purchased from a commercial source (Perkin Elmer, Shelton, Conn.; or DiscovRx, Fremont, Calif.). Assay reactions were prepared by sequentially adding the following reagents to binding buffer (100 mM NaCl, 10 mM MgCl2, 20 mM HEPES, pH 7.4) on ice (final concentrations indicated): membrane protein (0.026 mg/mL), saponin ([…]), GDP ([…]) and [^35S]GTPγS (0.20 nM; Perkin Elmer, Shelton, Conn.). The prepared membrane solution (190 μl/well) was transferred to 96-shallow well polypropylene plates containing 10 μl of 20× concentrated stock solutions of the agonist [D-Ala^2, N-methyl-Phe^4 Gly-ol^5]-enkephalin (DAMGO) prepared in dimethyl sulfoxide (DMSO). Plates were incubated for 30 min at about 25° C. with shaking. Reactions were terminated by rapid filtration onto 96-well Unifilter GF/B filter plates (Perkin Elmer, Shelton, Conn.) using a 96-well tissue harvester (Perkin Elmer, Shelton, Conn.) followed by three filtration washes with 200 μl of ice-cold wash buffer (10 mM NaH2PO4, 10 mM Na2HPO4, pH 7.4). Filter plates were subsequently dried at 50° C. for 2-3 hours. BetaScint scintillation cocktail (Perkin Elmer, Shelton, Conn.) was added (50 μl/well) and plates were counted using a Packard Top-Count for 1 min/well. Data were analyzed using the sigmoidal dose-response curve fitting functions in GraphPad PRISM v. 3.0, or an in-house function for non-linear, sigmoidal dose-response curve-fitting.
# (§4) μ GTP EC50 is the concentration of a compound providing 50% of the maximal response for the compound at a μ-opioid receptor.
# (§5) μ GTP Emax (%) is the maximal effect elicited by a compound relative to the effect elicited by DAMGO, a standard μ agonist. Generally, the μ GTP Emax (%) value measures the efficacy of a compound to treat or prevent pain or other Conditions.
# (§6) In TABLE 2, activity response of certain Compounds of the Invention to the μ- and κ-opioid receptors was determined as described above for functional assays using HEK-293 cells.
# [4] = target: T2, κ opioid receptor (Homo sapiens (Human), UniProt P41145); assay: κ-opioid receptor [35S]GTPγS functional assay, HEK-293 cells; assay type: biochemical; conditions: for Emax: relative to U69,593
# Procedure: as §2
# (§7) Functional [^35S]GTPγS binding assays were conducted as follows. κ opioid receptor membrane solution was prepared by sequentially adding final concentrations of 0.026 μg/μl κ membrane protein (in-house), 10 μg/mL saponin, 3 μM GDP and 0.20 nM [^35S]GTPγS to binding buffer (100 mM NaCl, 10 mM MgCl2, 20 mM HEPES, pH 7.4) on ice. The prepared membrane solution (190 μl/well) was transferred to 96-shallow well polypropylene plates containing 10 μl of 20× concentrated stock solutions of agonist prepared in DMSO. Plates were incubated for 30 min at a temperature of about 25° C. with shaking. Reactions were terminated by rapid filtration onto 96-well Unifilter GF/B filter plates (Perkin Elmer, Shelton, Conn.) using a 96-well tissue harvester (Packard) and followed by three filtration washes with 200 μl ice-cold binding buffer (10 mM NaH2PO4, 10 mM Na2HPO4, pH 7.4). Filter plates were subsequently dried at 50° C. for 2-3 hours. Fifty μl/well scintillation cocktail (Perkin Elmer, Shelton, Conn.) was added and plates were counted in a Packard Top-Count for 1 min/well.
# (§8) κ GTP EC50 is the concentration of a compound providing 50% of the maximal response for the compound at a κ receptor.
# (§9) κ GTP Emax (%) is the maximal effect elicited by a compound relative to the effect elicited by U69,593.
# as §6
# [5] = target: T1, μ-opioid receptor; assay: μ-opioid receptor [35S]GTPγS functional assay, U-2 OS cells; assay type: biochemical; conditions: for Emax: GTPγS, U-2 OS cells, relative to DAMGO
# Procedure: as §3, §4, §5
# (§10) In TABLE 3, activity response of certain Compounds of the Invention to the μ- and κ-opioid receptors was determined as described above for functional assays using U-2 OS cells.
# [6] = target: T2, κ opioid receptor; assay: κ-opioid receptor [35S]GTPγS functional assay, U-2 OS cells; assay type: biochemical; conditions: for Emax: GTPγS, U-2 OS cells, relative to U69,593
# Procedure: as §2, §7, §8, §9, §10
Compound,Ki [1],Ki [2],EC50 [3],"Emax ([3]; GTPγS, HEK-293 cells)",EC50 [4],"Emax ([4]; GTPγS, HEK-293 cells)",EC50 [5],Emax [5],EC50 [6],Emax [6],"EC50 ([3]; GTPγS, HEK-293 cells, read-out: μ EC50)","EC50 ([4]; GTPγS, HEK-293 cells, read-out: κ EC50)"
"C=C1C[C@@]23CCN(CC4CC4)[C@H](Cc4ccc(OC)cc42)C3C2CC12 (stereo partly drawn) [Compound 4, (2R,7bS)-12-(cyclopropylmethyl)-6-methoxy-9-methylene-1,1a,1b,2,3,8,9,9a-octahydro-2,7b-(epiminoethano)cyclopropa[a]phenanthrene]",142 ± 10.8 nM,2.19 ± 0.6 nM,42.2 ± 3.59 nM,113 ± 3.38%,103 ± 36.9 nM,106 ± 1.67%,83.1 ± 7.77 nM,66.7 ± 4.81%,8.95 ± 1.02 nM,102 ± 1.53%,,
"COc1ccc2c(c1)[C@]13CCN(CC4CC4)[C@H](C2)[C@@H]1C1CC1C(O)C3 (stereo partly drawn) [Compound 2, (1bR,2R,7bS)-12-(cyclopropylmethyl)-6-methoxy-1,1a,1b,2,3,8,9,9a-octahydro-2,7b-(epiminoethano)cyclopropa[a]phenanthren-9-ol]",,23.3 ± 6.06 nM,414 ± 73 nM,54.3 ± 4.67%,1120 ± 230 nM,76.7 ± 3.18%,,,,,,
"C=CCOC1C[C@]23CCN(CC4CC4)[C@H](Cc4ccc(OC)cc42)C3C2CC12 (stereo partly drawn) [Compound 3, (2R,7bS)-9-(allyloxy)-12-(cyclopropylmethyl)-6-methoxy-1,1a,1b,2,3,8,9,9a-octahydro-2,7b-(epiminoethano)cyclopropa[a]phenanthrene]",30 ± 2.76 nM,3.04 ± 0.6 nM,75.2 ± 9.24 nM,84.3 ± 5.81%,116 ± 27.4 nM,66.7 ± 7.88%,90.7 ± 17 nM,52.7 ± 7.54%,29.5 ± 4.5 nM,105 ± 4.67%,,
"COc1ccc2c(c1)[C@]13CCN(CC4CC4)[C@H](C2)[C@@H]1[C@H]1C2CCC(CC2)[C@H]1C(=O)C3 [Compound 5, (4aR,4bR,5R,10bS,12aR)-15-(cyclopropylmethyl)-9-methoxy-2,3,4,4a,5,6,11,12a-octahydro-1H-5,10b-(epiminoethano)-1,4-ethanochrysen-12(4bH)-one]",242 ± 46 nM,126 ± 21.9 nM,,33 ± 4.71%,,19.3 ± 0.88%,,,,,216 ± 16.6 nM,1370 ± 419 nM
"COc1ccc2c(c1)[C@]13CCN(CC4CC4)[C@H](C2)[C@@H]1C1CC1C(=O)C3 (stereo partly drawn) [Compound 1, (1bR,2R,7bS)-12-(cyclopropylmethyl)-6-methoxy-1,1b,2,3,8,9a-hexahydro-2,7b-(epiminoethano)cyclopropa[a]phenanthren-9(1aH)-one]",112 ± 26.9 nM,8.87 ± 2.73 nM,53.6 ± 8.94 nM,63.6 ± 3.47%,136 ± 25.4 nM,81 ± 2.27%,,,,,,
